Molecular target: T1, human chemokine receptor 2 isoform B (CCR2) (Homo sapiens, UniProt P41597)
T1 sequence (P41597 1-360 isoform P41597-2): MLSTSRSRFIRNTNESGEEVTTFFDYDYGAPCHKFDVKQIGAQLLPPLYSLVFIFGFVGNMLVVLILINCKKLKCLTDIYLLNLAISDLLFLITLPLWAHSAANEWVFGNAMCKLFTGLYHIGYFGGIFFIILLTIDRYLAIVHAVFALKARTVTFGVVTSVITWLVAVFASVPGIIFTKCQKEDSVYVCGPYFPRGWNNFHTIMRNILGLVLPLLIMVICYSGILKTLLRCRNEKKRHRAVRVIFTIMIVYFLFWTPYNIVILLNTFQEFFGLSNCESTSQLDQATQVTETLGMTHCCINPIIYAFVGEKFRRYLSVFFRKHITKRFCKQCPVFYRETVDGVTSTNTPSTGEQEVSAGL
Experiment: Calcium mobilization assay (FLIPR, MCP-1 stimulated CHOK1-CCR2B-A5 cells)
Assay type: cell-based
Conditions: Ca mobilisation assay, CCR2 antagonist activity, inhibition of MCP-1 induced calcium increase
Procedure: Calcium Mobilization Assay
CHOK1-CCR2B-A5 cells (from Euroscreen) stably overexpressing the human chemokine receptor 2 isoform B were cultured in Nutrient Hams F12 medium supplemented with 5% FBS, 100 U/ml penicillin, 100 μg/ml streptomycin, 400 μg/ml G418 and 5 μg/ml puromycin.
For the assay cells were grown overnight in 384-well black clear flat bottom polystyrene plates (Costar) at 37° C. at 5% CO2. After washing with DMEM, 20 mM Hepes, 2.5 mM probenecid, 0.1% BSA (DMEM assay buffer) cells were loaded with 4 μM Fluo-4 in the same DMEM assay buffer for 2 hours at 30° C. Excess dye was removed and cells were washed with DMEM assay buffer. 384-well compound plates were prepared with DMEM assay buffer/0.5% DMSO with or without various concentrations of test compounds. Usually compounds were tested for agonist and antagonist activity.
Test compounds were added to the assay plate and agonist activity was monitored as fluorescence for 80 seconds with a FLIPR (488 nm excitation; 510-570 nm emission; Molecular Devices). After 20-30 min. of incubation at 30° C., […] MCP-1 (R&D; Roche) was added and fluorescence was monitored again for 80 seconds. Increases in intracellular calcium are reported as maximum fluorescence after agonist exposure minus basal fluorescence before exposure. Antagonist activity is indicated as inhibitor concentration required for 50% inhibition of specific calcium increases.

IC50	SMILES
0.021 µM	COCC(CCN1CCC2(CC2)[C@H](O)C1)N1CC(C)N(C(=O)Nc2cccc(Cl)c2)CCC1=O (stereo in doubt) [Example 65, (R)-4-[(S)-3-((S)-4-Hydroxy-6-aza-spiro[2.5]oct-6-yl)-1-methoxymethyl-propyl]-2-methyl-5-oxo-[1,4]diazepane-1-carboxylic acid (3-chloro-phenyl)-amide]
0.003 µM	COC[C@H](CCN1CCC2(CC2)[C@H](O)C1)N1CCN(C(=O)Nc2ccc(F)c(Cl)c2)[C@@H](C)C1=O [Example 79, (S)-4-[(S)-3-((S)-4-Hydroxy-6-aza-spiro[2.5]oct-6-yl)-1-methoxymethyl-propyl]-2-methyl-3-oxo-piperazine-1-carboxylic acid (3-chloro-4-fluoro-phenyl)-amide]
0.002 µM	C[C@H]1C(=O)N([C@H](CO)CCN2CCC3(CC3)[C@H](O)C2)CCN1C(=O)Nc1cccc(Cl)c1 [Example 107, (S)-4-[(S)-3-((S)-4-Hydroxy-6-aza-spiro[2.5]oct-6-yl)-1-hydroxymethyl-propyl]-2-methyl-3-oxo-piperazine-1-carboxylic acid (3-chloro-phenyl)-amide]
0.006 µM	C[C@H]1C(=O)N(CCCCN2CCC3(CC3)[C@H](O)C2)CCN1C(=O)Nc1ccc2ccccc2c1 [Example 91, (S)-4-[4-((S)-4-Hydroxy-6-aza-spiro[2.5]oct-6-yl)-butyl]-2-methyl-3-oxo-piperazine-1-carboxylic acid naphthalen-2-ylamide]
0.003 µM	C[C@H]1C(=O)N([C@@H](CCN2CCC3(CC3)[C@H](O)C2)COC(=O)c2ccccc2)CCN1C(=O)Nc1ccc(Cl)c(Cl)c1 [Example 118, Benzoic acid (S)-2-[(S)-4-(3,4-dichloro-phenylcarbamoyl)-3-methyl-2-oxo-piperazin-1-yl]-4-((S)-4-hydroxy-6-aza-spiro[2.5]oct-6-yl)-butyl ester]
0.06 µM	C[C@@H]1CN(CCCN2CCC3(CC3)[C@H](O)C2)C(=O)CCN1C(=O)Nc1cccc(Cl)c1 [Example 60, (R)-4-[3-((S)-4-Hydroxy-6-aza-spiro[2.5]oct-6-yl)-propyl]-2-methyl-5-oxo-[1,4]diazepane-1-carboxylic acid (3-chloro-phenyl)-amide]
0.004 µM	C[C@H]1C(=O)N(CCCN2CCC3(CC3)[C@H](O)C2)CCN1C(=O)Nc1ccc(F)c(Cl)c1 [Example 70, (S)-4-[3-((S)-4-Hydroxy-6-aza-spiro[2.5]oct-6-yl)-propyl]-2-methyl-3-oxo-piperazine-1-carboxylic acid (3-chloro-4-fluoro-phenyl)-amide]
0.003 µM	C[C@H]1C(=O)N(CCCN2CCC3(CC3)[C@H](O)C2)CCN1C(=O)Nc1ccc2ccccc2c1 [Example 75, (S)-4-[3-((S)-4-Hydroxy-6-aza-spiro[2.5]oct-6-yl)-propyl]-2-methyl-3-oxo-piperazine-1-carboxylic acid naphthalen-2-ylamide]
0.002 µM	COC[C@H](CCN1CCC2(CC2)[C@H](O)C1)N1CCN(C(=O)Nc2ccc(Cl)c(Cl)c2)CCC1=O [Example 56, 4-[(S)-3-((S)-4-hydroxy-6-aza-spiro[2.5]oct-6-yl)-1-methoxymethyl-propyl]-5-oxo-[1,4]diazepane-1-carboxylic acid (3,4-dichloro-phenyl)-amide]
0.024 µM	C[C@H]1C(=O)N(CCCCN2CCC3(CC3)[C@H](O)C2)CCN1C(=O)Nc1ccc(C(F)(F)F)cn1 [Example 99, (S)-4-[4-((S)-4-Hydroxy-6-aza-spiro[2.5]oct-6-yl)-butyl]-2-methyl-3-oxo-piperazine-1-carboxylic acid (5-trifluoromethyl-pyridin-2-yl)-amide]
0.025 µM	C[C@H]1C(=O)N(CCCCN2CCC3(CC3)[C@H](O)C2)CCN1C(=O)Nc1cccc(C(F)(F)F)c1 [Example 89, (S)-4-[4-((S)-4-Hydroxy-6-aza-spiro[2.5]oct-6-yl)-butyl]-2-methyl-3-oxo-piperazine-1-carboxylic acid (3-trifluoromethyl-phenyl)-amide]
0.023 µM	C[C@H]1C(=O)N(C[C@H](O)CN2CCC3(CC3)[C@H](O)C2)CCN1C(=O)Nc1ccc(Cl)c(Cl)c1 [Example 122, (S)-4-[(R)-2-Hydroxy-3-((S)-4-hydroxy-6-aza-spiro[2.5]oct-6-yl)-propyl]-2-methyl-3-oxo-piperazine-1-carboxylic acid (3,4-dichloro-phenyl)-amide]
0.04 µM	O=C(Nc1cccc(Cl)c1)N1CCC(=O)N(C(CO)CCN2CCC3(CC3)[C@H](O)C2)CC1 (stereo partly drawn) [Example 2, (R,S)-4-[3-((S)-4-Hydroxy-6-aza-spiro[2.5]oct-6-yl)-1-hydroxymethyl-propyl]-5-oxo-[1,4]diazepane-1-carboxylic acid (3-chloro-phenyl)-amide]
0.293 µM	C[C@H]1C(=O)N(CCCCN2CCC3(CC3)[C@H](O)C2)CCN1C(=O)Nc1cccc(-c2cccnc2)c1 [Example 94, (S)-4-[4-((S)-4-Hydroxy-6-aza-spiro[2.5]oct-6-yl)-butyl]-2-methyl-3-oxo-piperazine-1-carboxylic acid (3-pyridin-3-yl-phenyl)-amide]
0.007 µM	C[C@H]1CCN(CCCN2CCN(C(=O)Nc3ccc(Cl)c(Cl)c3)[C@@H](C)C2=O)C[C@H]1O [Example 47, (S)-4-[3-((3S,4S)-3-Hydroxy-4-methyl-piperidin-1-yl)-propyl]-2-methyl-3-oxo-piperazine-1-carboxylic acid (3,4-dichloro-phenyl)-amide]
0.6 µM	O=C1CCN(C(=S)Nc2ccc(Cl)c(Cl)c2)CCN1CCCN1CCCCC1 [Example 18, 5-Oxo-4-(3-piperidin-1-yl-propyl)-[1,4]diazepane-1-carbothioic acid (3,4-dichloro-phenyl)-amide]
0.54 µM	O=C1CCN(C(=O)Nc2ccc(Cl)c(Cl)c2)[C@H](Cc2ccccc2)CN1CCCN1CCCCC1 [Example 27, (R)-2-Benzyl-5-oxo-4-(3-piperidin-1-yl-propyl)-[1,4]diazepane-1-carboxylic acid (3,4-dichloro-phenyl)-amide]
0.61 µM	C[C@H]1C(=O)N(CCCN2CCCCC2)CCN1C(=O)Nc1cccc(-c2ccccc2)c1 [Example 43, (S)-2-Methyl-3-oxo-4-(3-piperidin-1-yl-propyl)-piperazine-1-carboxylic acid biphenyl-3-ylamide]
0.47 µM	COC(=O)C(CCN1CCC2(CC2)[C@H](O)C1)N1CCN(C(=O)Nc2cccc(Cl)c2)CCC1=O (stereo partly drawn) [Example 1, (R,S)-2-[4-(3-Chloro-phenylcarbamoyl)-7-oxo-[1,4]diazepan-1-yl]-4-((S)-4-hydroxy-6-aza-spiro[2.5]oct-6-yl)-butyric acid methyl ester]
0.03 µM	COC(=O)[C@H](CCN1CCC2(CC2)[C@H](O)C1)N1C[C@@H](C)N(C(=O)Nc2cccc(Cl)c2)CCC1=O [Example 62, (S)-2-[(R)-4-(3-Chloro-phenylcarbamoyl)-3-methyl-7-oxo-[1,4]diazepan-1-yl]-4-((S)-4-hydroxy-6-aza-spiro[2.5]oct-6-yl)-butyric acid methyl ester]
0.316 µM	C[C@H]1C(=O)N(CCCCN2CCC3(CC3)[C@H](O)C2)CCN1C(=O)Nc1cccc(C(F)(F)F)n1 [Example 101, (S)-4-[4-((S)-4-Hydroxy-6-aza-spiro[2.5]oct-6-yl)-butyl]-2-methyl-3-oxo-piperazine-1-carboxylic acid (6-trifluoromethyl-pyridin-2-yl)-amide]
0.27 µM	COC(=O)[C@H](CCN1CCC2(CC2)[C@H](O)C1)N1CCN(C(=O)Nc2cccc(Cl)c2)CCC1=O [Example 3, (S)-2-[4-(3-Chloro-phenylcarbamoyl)-7-oxo-[1,4]diazepan-1-yl]-4-((S)-4-hydroxy-6-aza-spiro[2.5]oct-6-yl)-butyric acid methyl ester]
0.006 µM	O=C1CCN(C(=O)Nc2ccc(Cl)c(Cl)c2)CCN1CCCN1CCC2(CC2)[C@H](O)C1 [Example 54, 4-[3-((S)-4-Hydroxy-6-aza-spiro[2.5]oct-6-yl)-propyl]-5-oxo-[1,4]diazepane-1-carboxylic acid (3,4-dichloro-phenyl)-amide]
0.004 µM	COCC(CCN1CCC2(CC2)[C@H](O)C1)N1CCN(C(=O)Nc2ccc(Cl)c(Cl)c2)CCC1=O (stereo partly drawn) [Example 55, (R,S)-4-[3-((S)-4-Hydroxy-6-aza-spiro[2.5]oct-6-yl)-1-methoxymethyl-propyl]-5-oxo-[1,4]diazepane-1-carboxylic acid (3,4-dichloro-phenyl)-amide]
0.192 µM	C[C@H]1C(=O)N([C@@H](CCN2CCCCC2)COC(=O)Nc2ccc(Cl)c(Cl)c2)CCN1C(=O)Nc1ccc(Cl)c(Cl)c1 [Example 86, (3,4-Dichloro-phenyl)-carbamic acid (S)-2-[(S)-4-(3,4-dichloro-phenylcarbamoyl)-3-methyl-2-oxo-piperazin-1-yl]-4-piperidin-1-yl-butyl ester]
